Series [1] in a line: Thermodynamic solubility assessment in biological media (FaSSIF, FeSSIF, FaSSGF), HPLC of mother liquors. It is filed as physicochemical. The conditions noted are these: listed as Compound A free base. The protocol: The thermodynamic solubility of Compound A free base, Compound A fumarate Form 1 and Compound A hemi-fumarate Form 3 was assessed in 3 biological media: Fasted State Simulated Intestinal Fluid (FaSSIF); Fed State Simulated Intestinal Fluid (FeSSIF) and Fasted State Simulated Gastric Fluid (FaSSGF).
The following procedure was carried out. Approximately 10 mg of material was weighed into 3×1.5 mL glass vials. 0.02 mL aliquots of appropriate buffer were added to each vial until a final concentration of 10 mg/mL was obtained. The samples were then filtered via centrifugation and the mother liquors analyzed by HPLC.

The next series deals with T1, Aurora A (Homo sapiens, UniProt O14965).
T1 sequence (O14965 1-403): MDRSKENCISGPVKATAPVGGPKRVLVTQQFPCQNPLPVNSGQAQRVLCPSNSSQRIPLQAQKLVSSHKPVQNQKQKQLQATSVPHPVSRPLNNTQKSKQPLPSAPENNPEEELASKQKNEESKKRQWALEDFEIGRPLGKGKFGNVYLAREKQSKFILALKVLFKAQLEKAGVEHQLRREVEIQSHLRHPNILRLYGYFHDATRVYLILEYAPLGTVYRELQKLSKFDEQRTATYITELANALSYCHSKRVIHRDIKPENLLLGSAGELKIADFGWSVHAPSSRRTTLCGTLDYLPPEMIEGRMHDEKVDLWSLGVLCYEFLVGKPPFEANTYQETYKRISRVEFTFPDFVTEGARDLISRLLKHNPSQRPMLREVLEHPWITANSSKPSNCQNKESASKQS
The conditions noted are these: cited from earlier work.

Another series has as its target Aurora B (Homo sapiens, UniProt Q96GD4). The following applies: cited from earlier work.
In a further series the target is T2, Aurora C (Homo sapiens, UniProt Q9UQB9).
T2 sequence (Q9UQB9 1-309): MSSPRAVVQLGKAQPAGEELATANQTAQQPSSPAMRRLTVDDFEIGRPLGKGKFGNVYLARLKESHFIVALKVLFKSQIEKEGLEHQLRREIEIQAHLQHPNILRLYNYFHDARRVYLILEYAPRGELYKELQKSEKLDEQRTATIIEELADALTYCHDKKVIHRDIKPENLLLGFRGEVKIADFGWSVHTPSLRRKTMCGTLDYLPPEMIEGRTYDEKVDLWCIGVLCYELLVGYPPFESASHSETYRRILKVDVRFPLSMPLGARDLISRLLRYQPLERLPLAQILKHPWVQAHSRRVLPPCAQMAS
The following applies: cited from earlier work.

Another series concerns the target T3, FLT3 (Homo sapiens, UniProt P36888).
T3 sequence (P36888 27-993): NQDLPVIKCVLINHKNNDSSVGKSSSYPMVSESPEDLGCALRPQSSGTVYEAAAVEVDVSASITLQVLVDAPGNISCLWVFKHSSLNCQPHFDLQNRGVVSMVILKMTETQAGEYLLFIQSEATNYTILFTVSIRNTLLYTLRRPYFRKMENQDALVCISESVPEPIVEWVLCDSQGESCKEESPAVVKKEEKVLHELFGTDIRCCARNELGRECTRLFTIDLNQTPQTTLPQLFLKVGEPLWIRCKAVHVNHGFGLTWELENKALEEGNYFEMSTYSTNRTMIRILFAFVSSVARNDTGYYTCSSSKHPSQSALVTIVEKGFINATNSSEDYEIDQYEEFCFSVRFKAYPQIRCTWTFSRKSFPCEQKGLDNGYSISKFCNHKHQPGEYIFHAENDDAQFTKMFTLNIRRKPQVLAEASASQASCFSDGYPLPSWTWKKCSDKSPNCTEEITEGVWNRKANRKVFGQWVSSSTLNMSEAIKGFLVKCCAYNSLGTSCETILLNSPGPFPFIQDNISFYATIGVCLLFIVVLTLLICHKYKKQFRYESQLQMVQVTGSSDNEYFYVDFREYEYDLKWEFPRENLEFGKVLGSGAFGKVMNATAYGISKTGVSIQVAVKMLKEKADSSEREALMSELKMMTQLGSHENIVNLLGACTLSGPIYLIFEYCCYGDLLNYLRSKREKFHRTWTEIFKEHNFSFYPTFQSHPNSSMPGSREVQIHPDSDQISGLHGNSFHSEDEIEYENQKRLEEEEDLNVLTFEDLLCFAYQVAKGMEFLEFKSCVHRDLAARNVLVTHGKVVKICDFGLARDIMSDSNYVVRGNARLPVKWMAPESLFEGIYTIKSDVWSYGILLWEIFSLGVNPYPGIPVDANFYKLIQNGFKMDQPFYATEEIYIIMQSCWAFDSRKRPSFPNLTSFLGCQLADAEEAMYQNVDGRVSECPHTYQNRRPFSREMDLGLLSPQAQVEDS
The following applies: cited from earlier work.

A further series has as its system cytochrome P450. The following applies: cited from earlier work.
Another series addresses hERG (Homo sapiens, UniProt Q12809). The conditions noted are these: cited from earlier work.

hERG, sequence (Q12809 whole entry): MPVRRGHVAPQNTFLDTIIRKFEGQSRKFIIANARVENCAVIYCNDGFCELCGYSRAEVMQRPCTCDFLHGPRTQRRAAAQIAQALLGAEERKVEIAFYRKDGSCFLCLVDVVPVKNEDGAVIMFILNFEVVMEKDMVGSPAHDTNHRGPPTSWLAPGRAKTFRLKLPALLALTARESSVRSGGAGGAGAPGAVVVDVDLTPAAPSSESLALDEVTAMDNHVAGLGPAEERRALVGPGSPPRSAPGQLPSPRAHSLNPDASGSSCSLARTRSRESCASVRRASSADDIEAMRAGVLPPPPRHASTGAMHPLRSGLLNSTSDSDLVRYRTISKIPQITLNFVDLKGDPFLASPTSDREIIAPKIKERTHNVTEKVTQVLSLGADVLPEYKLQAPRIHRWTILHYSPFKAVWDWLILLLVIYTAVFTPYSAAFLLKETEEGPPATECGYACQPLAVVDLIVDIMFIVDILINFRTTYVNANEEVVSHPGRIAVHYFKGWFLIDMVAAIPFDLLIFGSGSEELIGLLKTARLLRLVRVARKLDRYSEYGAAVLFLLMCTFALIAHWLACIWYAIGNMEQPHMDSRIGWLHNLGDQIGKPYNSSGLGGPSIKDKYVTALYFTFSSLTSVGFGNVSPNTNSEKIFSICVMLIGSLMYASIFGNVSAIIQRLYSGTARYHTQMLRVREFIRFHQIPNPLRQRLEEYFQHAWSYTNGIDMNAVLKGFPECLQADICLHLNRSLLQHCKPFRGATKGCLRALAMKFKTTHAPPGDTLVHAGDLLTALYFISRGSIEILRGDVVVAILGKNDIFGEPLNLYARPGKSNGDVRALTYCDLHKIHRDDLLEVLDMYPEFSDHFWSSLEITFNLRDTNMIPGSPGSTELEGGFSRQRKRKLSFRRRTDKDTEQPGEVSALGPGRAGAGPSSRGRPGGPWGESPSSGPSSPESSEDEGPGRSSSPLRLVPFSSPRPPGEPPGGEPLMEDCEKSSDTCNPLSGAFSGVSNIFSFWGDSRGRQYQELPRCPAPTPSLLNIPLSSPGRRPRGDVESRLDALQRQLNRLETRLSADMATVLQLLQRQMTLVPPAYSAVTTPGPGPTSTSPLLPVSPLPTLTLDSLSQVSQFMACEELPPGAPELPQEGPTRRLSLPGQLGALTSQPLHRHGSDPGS
Aurora B, sequence (Q96GD4 whole entry): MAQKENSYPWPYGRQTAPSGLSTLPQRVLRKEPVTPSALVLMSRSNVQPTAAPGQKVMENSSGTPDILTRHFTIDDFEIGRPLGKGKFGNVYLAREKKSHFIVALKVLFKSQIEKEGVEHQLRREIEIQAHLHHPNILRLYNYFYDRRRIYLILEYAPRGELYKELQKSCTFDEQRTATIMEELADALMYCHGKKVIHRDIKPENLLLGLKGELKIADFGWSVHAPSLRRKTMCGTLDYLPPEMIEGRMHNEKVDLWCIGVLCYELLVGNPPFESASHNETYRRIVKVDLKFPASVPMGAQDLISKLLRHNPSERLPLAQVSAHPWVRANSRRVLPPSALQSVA

Take `Cc1nn(C)cc1-c1nc2c(N3CCN(Cc4ccc(Cl)cc4)CC3)c(Cl)cnc2[nH]1` [Compound A, 6-chloro-7-(4-(4-chlorobenzyl)piperazin-1-yl)-2-(1,3-dimethyl-1H-pyrazol-4-yl)-3H-imidazo[4,5-b]pyridine]: the “Concentration (thermodynamic solubility)” value in series [1] (FaSSGF pH 1.6) was 1500 µg/mL; in series [1] (FaSSIF pH 6.5) it was less than 100 µg/mL; in series [1] (FeSSIF pH 5.0), less than 100 µg/mL. The “activity against Aurora A kinase” value at Aurora A is listed as “high activity”. The “activity against Aurora B kinase” value at Aurora B is on record as “high activity”. For the same compound, the “activity against Aurora C kinase” value on Aurora C is “high activity”. Besides, the “activity against FLT3 kinase” value on FLT3 is “high activity”. Also, the “interaction with cytochrome P450 activity” value in the series on cytochrome P450 was “minimal interaction”. The “interaction with hERG” value on hERG was “minimal interaction”.

(Values after patent US12624027B2, “Salts and polymorphic forms of 6-chloro-7-(4-(4-chlorobenzyl)piperazin-1-yl)-2-(1,3-dimethyl-1H-pyrazol-4-yl)-3H-imidazo[4,5-b]pyridine” (ELLIPSES PHARMA LTD, priority 2020, dated 2026).)
